Compound | melting point
COc1cccc(-c2c(NC(=O)Nc3c(C(C)C)cccc3C(C)C)c(=O)n(C)c3ncccc23)c1 | 169 to 170 °C
COc1ccc2ccc(C(N)=O)c(OC(C)C)c2c1 | 172 to 174 °C
O=c1oc2ccc(-c3ccc(F)cc3F)cc2c(=O)n1-c1ccc(F)c(F)c1 | 193 to 194 °C
CCOC(=O)C1=Cc2c(OC)ccc(OC)c2CC1 | 74 to 76 °C
Cc1ccc(-c2ccccc2C#N)cc1Br | 104 to 106 °C
O=CN(O)C(CCc1ccc(C(=O)O)cc1)CS(=O)(=O)c1ccc(Oc2ccc(OC(F)(F)F)cc2)cc1 (stereo unspecified) | 189 to 191 °C
O=C(O)CCc1cn(Cc2ccc(OCc3csc(-c4ccccc4)n3)cc2)nc1-c1cccs1 | 133 to 134 °C
Cc1ccc(-c2ccc3c(c2)C=C(C(=O)Nc2ccc(CSCc4ccccc4)cc2)CCO3)cc1 | 145 to 146 °C
COc1cc2c(cc1OC)C(=O)C(N1CCC(n3c(=O)[nH]c4ccccc43)CC1)CC2 (stereo unspecified) | 238 to 239 °C
Cc1oc(-c2ccccc2)nc1COc1ccc(C(=O)Nc2nn(-c3ccccc3)cc2C=O)cc1 | 185 to 186 °C
Sc1nc(CCCC2CCCCC2)c[nH]1 | 176 to 177 °C
Cc1ccc(NCc2ccc(N(C)C)cc2)c(C)c1 | 79 to 80 °C
O=C(O)c1cc(Cn2cc(C3c4ccccc4C=Cc4ccccc43)c(=S)[nH]c2=O)ccc1Cc1ccccc1 | 135 °C
FC(F)(F)c1ccc2nc(N3CCN(c4ncncc4Cl)CC3)[nH]c2c1 | 66.6 to 66.7 °C
CCN(c1cc(C)c(C)c2cc(-c3ncc(CO)s3)[nH]c12)S(=O)(=O)c1cccs1 | 189 to 190 °C
CC(C)S(=O)(=O)C1=CC=CN(Cl)C1 | 82 to 84 °C
CCCCNC(=O)OC1c2cc(Cl)ccc2C(=O)N1c1ccc2ccc(Cl)nc2n1 (stereo unspecified) | 228 to 230 °C
CCOC(=O)C1=C(C)NC(=O)N(C(=O)OC(C)C)C1c1cccc([N+](=O)[O-])c1 (stereo unspecified) | 128 to 129 °C
COc1ccc(C2COc3c(ccc(O)c3C)C2)cc1OC (stereo unspecified) | 125 to 127 °C
Cc1ccc(NC2CCCc3cc(C)cnc32)cc1 (stereo unspecified) | 83 to 85 °C

Compound | melting point
Cc1cc(-c2cc(C(F)(F)F)n3ncc(C(=O)Nc4nc(C)c(S(=O)(=O)NC(C)(C)CO)s4)c3n2)ccc1C(F)(F)F | 272 °C
CC1(O)C(CO)OC(n2cnc3c(N)ncnc32)C1(C)O (stereo unspecified) | 180 °C
Nc1nc(Nc2ccc(S(N)(=O)=O)cc2)sc1C(=O)c1c(Cl)cc(C(F)(F)F)cc1Cl | 294 to 296 °C
CCCCNC(=O)[C@H](C)C[C@H](O)[C@H](CC1CCCCC1)NC(=O)[C@H](Cc1cscn1)NC(=O)[C@@H](CC(=O)N1CCOCC1)Cc1ccccc1 | 162 to 163 °C
Cc1ccn2c(Br)c(CCc3ccc4nc(N)sc4c3)nc2c1 | 233 to 236 °C
CNc1c(C)c(C)c(OC(C)=O)c(C)c1[N+](=O)[O-] | 143 to 146 °C
O=C1N=NC(=O)c2c1[nH]c1c(Cl)cccc21 | > 250 °C
CCOc1ccc(-c2cc(C(F)(F)F)n3cnc(-c4ccncc4)c3n2)cc1C(F)(F)F | 244 °C
CCc1ccc(-c2ccc3c(c2)C=C(C(=O)O)CCS3(=O)=O)cc1 | 260 to 265 °C
CCCCCCC1CC(c2ccc(CCCC)cc2)C(=O)O1 (stereo unspecified) | 37.7 °C
O=[N+]([O-])c1ccc2c(c1)CCN(Cc1ccc3cc([N+](=O)[O-])ccc3n1)CC2 | 127 to 130 °C
COc1ccc(CCNc2nccc(-c3cccc(NC(=O)CCN(C)C)c3)n2)cc1OC | 107 to 108 °C
OC[C@@H]1C[C@@H](C2CCCCC2)CN1 | 98 to 99 °C
COc1cc(Nc2nccc(-c3ccc(N4CCN(CCCN5C(=O)c6ccccc6C5=O)CC4)nc3)n2)cc(OC)c1OC | 105 to 106 °C
N#Cc1cccc(-n2c(=O)c(CCCc3ccncc3)cc3cccnc32)c1 | 202 to 204 °C
CCOC(=O)N1CCC2CN(c3c(F)cc4c(=O)c(C(=O)O)cn(C5CC5)c4c3F)CC21 (stereo unspecified) | 191 to 192 °C
Cc1c(C=CC#N)c2c(c(C)c1OCc1ccccc1)CCC(C)(C)O2 | 108 °C
CNC(=O)[C@@H](NC(=O)[C@@H](CC(=O)O)n1ccc(-c2ccc(-c3ccc(C#N)cc3)cc2)c1)C(C)(C)C | 142 to 144 °C
Cc1ccc(S(=O)(=O)OCCCn2c(=NC(=O)C(F)(F)F)sc3cc(OC(F)(F)F)ccc32)cc1 | 139 °C
NS(=O)(=O)c1cc(C(=O)O)cc(NCc2ccccc2)c1-c1ccccc1 | 221 to 222 °C

Compound | melting point
COc1cccc(CCNc2nc(N)n3nc(-c4ccco4)nc3n2)c1 | 172 to 174 °C
CCOC(=O)c1c2ccc(Cl)cc2c(-c2ccccc2)n1C1=CCC(=O)C=C1 | 94 to 95 °C
NNC(=O)c1ncn2ccccc12 | 189 °C
N#CC=C(N)c1ccc2ccccc2c1 | 85 to 90 °C
CC(=O)C(C(C)=O)C(=O)Nc1ccccc1 | 119 to 121 °C
CCCCCCCCCCCCCCOc1ccc(C(=O)Cc2ccc([N+](=O)[O-])cc2)cc1 | 84 to 85 °C
CCC(=O)NCCC1CCc2cc(F)c(O)cc21 (stereo unspecified) | 93 to 96 °C
CCc1c(CCNC(=O)CCCC(=O)NCCc2ccc(OC)c(OC)c2CC)ccc(OC)c1OC | 171 to 173 °C
NC(=O)CC(=O)c1cn2c3c(cccc13)CCC2 | 200 to 201 °C
CCCC(=O)Nc1n[nH]c2c([N+](=O)[O-])c(Br)c([N+](=O)[O-])cc12 | 260 °C
COc1cc2c(cc1OC)CCCC(C(=O)N1CCN(C(=O)c3cc(OC)c(OC)c(OC)c3)CC1)=C2 | 164 to 165 °C
CC(C)NC(=O)C(O)C(Oc1ccccc1)c1ccc(Cl)cc1 (stereo unspecified) | 175 to 177 °C
Cn1nnnc1CC(O)(c1ccccc1)c1ccc(F)cc1 (stereo unspecified) | 113 to 114 °C
CC(=O)c1ccc(Cl)c2c1OC(F)(F)O2 | 40 °C
C#CCN(c1ccc(C(=O)NC(CCc2nnn[nH]2)C(=O)O)cc1)C(C)c1cc2c(=O)[nH]c(C)nc2cc1C (stereo unspecified) | 207 °C
COCCNC(=O)c1ccc(NS(=O)(=O)c2ccc(F)cc2)cn1 | 154 °C
COCCNC1CCc2cc(Nc3ncc(Cl)c(Nc4c(OC)ccc5c4CN(S(C)(=O)=O)CC(=O)N5)n3)c(OC)cc2CC1 (stereo unspecified) | 110 to 114 °C
O=C1c2ccccc2C(=O)C1c1cccc(O)c1 | 139 to 141 °C
CCOC(=O)N1CCN(c2ccc(N3CC(CNC(C)=O)OC3=O)cc2F)CC1 (stereo unspecified) | 224 to 226 °C

The next lines start with the values.

melting point | Compound
160 to 162 °C | Nc1ncc(Cl)c(Cl)c1Cl
183 to 184 °C | NC(=O)CNC(=O)c1cccc(-c2ccc3c(n2)N(Cc2ccc(Cl)cc2Cl)CC3)c1
149 to 152 °C | COc1ccc(C2=NN(C3CCN(C(C)=O)CC3)C(=O)CC2C)cc1OC (stereo unspecified)
127 to 129 °C | O=C(Nc1ccc(-c2nnn[nH]2)cc1)C(=O)N1CCC(Cc2ccccc2)CC1
230 to 232 °C | COc1ccnc(CCc2nc3cc(-c4ccc(S(=O)(=O)N5CCNC(=O)CC5)cc4)cnc3[nH]2)c1
169 to 170 °C | CCOC(=O)c1c(Cn2cncn2)nc2sc3c(c2c1-c1ccc(OC)c(OC)c1)CN(C(=O)OCc1ccccc1)CC3
63 to 72 °C | CC1(C)SC(=O)C2OC=C(Br)C=C21 (stereo unspecified)
279 to 282 °C | Cc1nc2c(N)nc3ccccc3c2n1Cc1ccccc1
279 to 280 °C | O=C(c1c[nH]c2ncc(Br)nc12)C12CC3CC(CC(C3)C1)C2
224 to 226 °C | O=C1CCCc2ccc([N+](=O)[O-])cc2N1
166 to 170 °C | CC(=O)c1ccc(-c2ccc(O)c(Br)c2)cc1
127 °C | COc1cc(OC)c(C2=CCCCC2)c(OC)c1
230 to 232 °C | CS(=O)(=O)c1ccc(-c2cc(C#N)c(Br)nc2-c2ccc(F)cc2)cc1
92.4 to 93.8 °C | CCCCc1nc(C)c(CC(=S)N2CCC2)c(=O)n1Cc1ccc(-c2ccccc2-c2nnn[nH]2)cc1
151 to 152 °C | O=c1[nH]cc(Cc2ccccc2)cc1Br
61 to 65 °C | CCCCCCN(Cc1ccccc1)c1c(N[C@@H](Cc2ccccc2)C(=O)O)c(=O)c1=O
60 to 61 °C | CC1(C)OCC([N+](=O)[O-])CO1
100 °C | COc1cccc(C(O)c2cc(Cl)ccc2N(CC(N)=O)S(=O)(=O)c2ccc(OC)c(OC)c2)c1 (stereo unspecified)
195 to 196 °C | CC(=O)Nc1c(C(=O)c2cccc(C)n2)[nH]c2cc(Cl)ccc12

melting point | Compound
71 to 73 °C | OC(c1cc(Cl)cc(Cl)c1)C(F)(F)C(F)(F)F (stereo unspecified)
92 °C | CCOC(=O)C(C)Oc1ccc(N(C)c2ncnc3cc(Cl)ccc23)cc1 (stereo unspecified)
125 to 126 °C | COc1cccc(C(C[N+](=O)[O-])C2CCCCC2=O)c1 (racemic)
152 °C | C=COC(=O)N1C[C@@H]2C(=O)CCC(c3cccc(F)c3)(c3cccc(F)c3)[C@@H]2C1 (racemic)
180 °C | Nc1ccc(OS(=O)(=O)c2ccc(NCCO)cc2)cc1[N+](=O)[O-]
290 °C | Cc1cc(O)nc(N(C)C#N)n1
226 to 227 °C | Cc1cc(Cl)c2c(c1)C=C(C(=O)O)C(C(F)(F)F)O2 (stereo unspecified)
79 to 81 °C | COC(=O)C(=O)c1ccc(OCCOc2ccccc2)cc1
118 to 121 °C | Cc1cn(CCC(=O)O)c(=O)[nH]c1=O
120 °C | CC(CN1CCCC1)N1c2ccc(Cl)cc2Sc2ccc(C3=NC4CCCCC4N3)cc21 (racemic)
260 to 264 °C | O=C(CCNc1c(C(=O)O)[nH]c2cc(Cl)ccc12)c1ccc(F)c(F)c1
124 to 126 °C | CCOC(=O)C1=C(C)NC(CSC(=N)N)=C(C(=O)OCC)C1c1cccc([N+](=O)[O-])c1 (single isomer, unassigned; (+))
98 to 100 °C | C=CCNC(=O)Oc1cc(-n2c(=O)cc(C(F)(F)F)n(C)c2=O)c(F)cc1Cl
73 to 74 °C | C=C(c1ccc(F)cc1)c1ccccc1Cl
205 to 206 °C | CC1(C)C(=O)Nc2cc(C(=O)Nc3ccccc3)ccc21
> 200 °C | COC(=O)Cc1c(O)ncnc1O
79 to 80 °C | COC(=O)c1cccc2c(C(F)(F)F)c(OC)ccc12
216 to 218 °C | CCOC(=O)c1cn(C2CC2)c2nc(S(=O)(=O)c3ccc(C)cc3)c(F)cc2c1=O
